Data as given in patent publication US6645972B2, “Methods of treating leukemia” (Shire BioChem Inc., priority 2001, dated 2003).
Counter-ions that a name gives are not always drawn.

Tests used:
[1] = tested on: KBM7 cells; assay: response of KBM7 cells to STI-571 exposure; type: cell-based, human
Method: (§1) The cells were cultured in Iscove's modified Dulbecco's medium supplemented with 10% fetal calf serum (Invitrogen Corp., Carlsbad, Calif.) at 37° C. in atmosphere of 5% CO2 in air.

[2] = tested on: KBM5 cells; assay: response of KBM5 cells to STI-571 exposure; type: cell-based, human
Method: as §1

[3] = tested on: KBM-5 cells; assay: in vitro growth inhibition (MTS) assay, KBM-5; type: cell-based, human; settings: 3 day MTS assay, 72 h exposure, read-out: IC50 (drug concentration which causes 50% growth inhibition)
Method: (§2) β-L Oddc was evaluated using an in vitro growth inhibition (MTS) assay. The description of the cell lines used and the details of the MTS assay are described below.
(§3) Cell lines: Two human CML, Ph+, p210 Bcr-Abl expressing cell lines were used, namely, KBM-5 and KBM-7. KBM-5 was derived from a patient in the blastic phase of CML and was evaluated to be absent of normal c-ABL. KBM-7 was identified previously to be a human near-haploid cell line. These two cell lines were further described in the references below, now incorporated by reference:
as §1
(§4) Growth inhibition (MTS) assay: The in vitro growth inhibition effect of β-L Oddc on leukemic cells was determined by measuring MTS (CellTiter 96®Aqueous One Solution Reagent, Promega Corporation, WI) dye absorbance by living cells. Briefly, cells were seeded in triplicate in 96-well microtiter plates (Falcon, USA) at a concentration of 4×10^5 cells /ml. After exposure to the β-L Oddc for 72 h, 20 μl of MTS solution were added to each well, the plates were incubated for additional 4 h at 37° C., and absorbance at 490 nm was measured.

[4] = tested on: KBM5-STI^R cells (STI-571-resistant KBM5); assay: in vitro growth inhibition (MTS) assay, KBM5-STI^R; type: cell-based, human; settings: 3 day MTS assay, 72 h exposure, read-out: IC50 (drug concentration which causes 50% growth inhibition)
[5] = tested on: KBM7-STI^R cells (STI-571-resistant KBM7); assay: in vitro growth inhibition (MTS) assay, KBM7-STI^R; type: cell-based, human; settings: 3 day MTS assay, 72 h exposure, read-out: IC50 (drug concentration which causes 50% growth inhibition)
Method: as §2, §3, §4

[6] = tested on: KBM-7 cells; assay: in vitro growth inhibition (MTS) assay, KBM-7; type: cell-based, human; settings: 3 day MTS assay, 72 h exposure, read-out: IC50 (drug concentration which causes 50% growth inhibition)
Method: as §2, §3, §1, §4

[7] = tested on: chronic myeloid leukemia in blastic phase (CML-BP); assay: preliminary multicenter study in patients with CML-BP; type: in vivo, human; settings: 8mg/m^2/day daily for 5 days, twenty one patients evaluable, 40 cycles, data not verified
Method: A preliminary study was conducted to investigate the activity of β-L Oddc in patients with chronic myeloid leukemia in blastic phase (CML-BP). The multicenter study was conducted using β-L Oddc 8mg/m^2/day daily for 5 days for patients with CML-BP who had received no prior chemotherapy for CML-BP. Patients who had received Gleevec therapy as sole prior therapy for CML-BP were also eligible. Twenty-six patients, 17 male, 26 performance score less than or equal to 2, median age 54 years (range 31-84) had been entered in the study to date. 13 (50%) patients received β-L Oddc as first therapy for CML-BP, 13 (50%) had failed prior Gleevec therapy for CML-BP. Response definitions are as follows: Complete hematologic response (CHR) requires normalization of peripheral counts and differentials with less than or equal to 5% marrow blasts for at least 4 weeks. Hematologic improvement (HI) is as with CHR but with persistence of thrombocytopenia less than 100×10^9/L and few immature peripheral cells. A partial hematologic response (PHR) is as per CHR, but allows persistence of, though less than or equal to 50% reduction of, palpable splenomegaly and thrombocytosis (platelets>450×10^9/L) or the presence of few immature peripheral cells. […]

Structure (SMILES) | response to STI-571 exposure [1] | response to STI-571 exposure [2] | IC50 [3] [nM] | IC50 [4] [nM] | IC50 [5] [nM] | IC50 [6] [nM] | patients in whom some responses were observed [7] [patients]
Cc1ccc(NC(=O)c2ccc(CN3CCN(C)CC3)cc2)cc1Nc1nccc(-c2cccnc2)n1 [STI-571, imatinib mesylate] | apoptosis | G0/G1 cell cycle arrest |  |  |  |  | 
Nc1ccn([C@@H]2CO[C@H](CO)O2)c(=O)n1 [β-L Oddc, (−)-β-L-Dioxolane-Cytidine] |  |  | 500 to 1000 | 500 to 1000 | 500 to 1000 | 500 to 1000 | 4
